These are literature values, as cited in patent publication US20250255845A1, “USE OF INTERLEUKIN (IL)-17A INHIBITOR IN PREPARATION OF MEDICAMENT FOR TREATING INFLAMMATORY DISEASE” (Xiangnan University, priority 2024, published 2025).

This series has as its system endothelial cells. The conditions noted are these: CN101947215A; cited from earlier work.

On to `COc1ccc(-c2cc(=O)c3c(OC)c(OC)c(OC)cc3o2)cc1OC` [sinensetin], for which the “proliferation of endothelial cells / angiogenesis” value is recorded as “inhibit the proliferation of endothelial cells”.
In the case of `COc1ccc(-c2cc(=O)c3c(OC)c(OC)c(OC)c(OC)c3o2)cc1OC` [nobiletin], the “proliferation of endothelial cells / angiogenesis” value was “inhibit the proliferation of endothelial cells”.
